The source of these data is patent US11000033B2, “Ketone or oxime compound, and herbicide” (NISSAN CHEMICAL CORPORATION, priority 2014, dated 2021).

Holding throughout (format): in vivo
The subject of series [1] is wheat. The series is described as follows: Test Example 4: effect on crop by soil treatment (symbol e). To be noted: 320 g/ha. A digest of the protocol: (§1)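 Grown at 25° C. to 30° C. in a greenhouse, the crops came from seed sown spot-wise in sterilized diluvial soil under roughly 1.5 cm of covering soil.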
The subject of series [2] is soybean. Briefly: Test Example 4: effect on crop by soil treatment (symbol d). The following applies: 320 g/ha. The procedure, abridged: as §1
Series [3] deals with wheat. The series is described as follows: Test Example 5: effect on crop by foliage application, plastic box (symbol e). To be noted: 320 g/ha, 3 weeks after application. A digest of the protocol:
(§2)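 Box culture: sterile diluvial soil, seeds spot-sown, ~1.5 cm cover, raised under glass at 25–30° C.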

Series [4] has as its system Echinochloa oryzacola Vasing. The series is described as follows: Test Example 1: herbicidal activity, application before weed generation in submerged conditions (symbol A). To be noted: application herbicide amount 320 g/ha. The procedure, abridged:
(§3)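 Compound emulsion was diluted to a set herbicide amount and applied to the water surface on the sowing day, into submerged (4 cm) alluvial-soil pots sown with mixed weed seeds and transplanted 2.5-leaf rice. Pots were held in a 25–30 °C greenhouse, and weeds were scored 0–5 by herbicidal ratio after 3 weeks.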

In series [5] the test system is soybean. The series is described as follows: Test Example 5: effect on crop by foliage application, plastic box (symbol d). The following applies: 320 g/ha, 3 weeks after application. The procedure, abridged:
as §2

Series [6] concerns rapeseed. Briefly: Test Example 4: effect on crop by soil treatment (symbol g). To be noted: 320 g/ha. A digest of the protocol:
as §1

Series [7] relates to Galium spurium. Briefly: Test Example 5: herbicidal effect by foliage application, plastic box (symbol Q). To be noted: 320 g/ha, 3 weeks after application. The procedure, abridged:
(§4)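 Effect is rated 3 weeks after a foliar spray of water-diluted emulsion concentrate at a predetermined herbicide amount. Plants had grown 14 days in a 25° C. to 30° C. greenhouse from seed in sterilized diluvial soil.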

Series [8] relates to Monochoria vaginalis. Briefly: Test Example 1: herbicidal activity, application before weed generation in submerged conditions (symbol C). To be noted: application herbicide amount 320 g/ha. A digest of the protocol:
as §3

In series [9] the test system is directly sowed rice plant. The series is described as follows: Test Example 3: effect on crop by foliage application, Wagner pot (symbol b). To be noted: application herbicide amount 320 g/ha. A digest of the protocol:
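Plants are raised from seed in flooded paddy conditions: water stands 0.1–0.5 cm over alluvial soil, and the pot is kept in a greenhouse at 25–30 °C. Species sown are barnyardgrass (E. crus-galli var. crus-galli), Leptochloa chinensis, Cyperus difformis and rice.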

The test system of series [10] is Lolium multiflorum Lam. The series is described as follows: Test Example 5: herbicidal effect by foliage application, plastic box (symbol K). To be noted: 320 g/ha, 3 weeks after application. The procedure, abridged:
as §4

Series [11] concerns beet. Briefly: Test Example 5: effect on crop by foliage application, plastic box (symbol f). The following applies: 320 g/ha, 3 weeks after application. A digest of the protocol: as §2
In series [12] the test system is Digitaria ciliaris. Briefly: Test Example 4: herbicidal effect by soil treatment (symbol F). The following applies: 320 g/ha. The procedure, abridged: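 Seeds were sown in sterilized diluvial soil, covered with about 1.5 cm of soil, and the soil surface was sprayed with a water-diluted emulsion of the compound at a predetermined rate. Plants grew in a greenhouse at 25° C. to 30° C.; effects were scored visually 3 weeks after application.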

In series [13] the test system is Echinochloa crus-galli var. crus-galli. Briefly: Test Example 5: herbicidal effect by foliage application, plastic box (symbol H). The following applies: 320 g/ha, 3 weeks after application. The procedure, abridged: as §4
The subject of series [14] is Chenopodium album. Briefly: Test Example 5: herbicidal effect by foliage application, plastic box (symbol O). To be noted: 320 g/ha, 3 weeks after application. The procedure, abridged:
as §4

In series [15] the test system is Veronica persica. Briefly: Test Example 5: herbicidal effect by foliage application, plastic box (symbol R). The following applies: 320 g/ha, 3 weeks after application. The procedure, abridged: as §4

Turning to `CC(CC1CC(O)=C(c2c(C)cc(C)cc2C)C1=O)=NOCc1ccc(Cl)cc1` (stereo not drawn) [1-137], in series [1], the “e: wheat, effect grade on crop” value is 0 (Herbicidal ratio of 5% or lower (almost no effect)). Also, the “d: soybean, effect grade on crop” value in series [2] is reported as 0 (Herbicidal ratio of 5% or lower (almost no effect)). For the same compound, the “e: wheat, effect on crop (criteria 0-5)” value in [3] is 3 (Herbicidal ratio of 40% or higher and lower than 70%). Moreover, the “Herbicidal effect grade, A: Echinochloa oryzacola Vasing.” value in [4] is given as 5 (Herbicidal ratio of 90% or more (almost completely withered)). In addition, in series [5], the “d: soybean, effect on crop (criteria 0-5)” value was 0 (Herbicidal ratio of 5% or lower (almost no effect)). Besides, the “g: rapeseed, effect grade on crop” value in series [6] is recorded as 0 (Herbicidal ratio of 5% or lower (almost no effect)). In series [7], the “Q: Galium spurium, herbicidal effect (criteria 0-5)” value is 0 (Herbicidal ratio of 5% or lower (almost no effect)). Moreover, the “Herbicidal effect grade, C: Monochoria vaginalis” value in series [8] was 5 (Herbicidal ratio of 90% or more (almost completely withered)). Also, the “effect on crop b (directly sowed rice plant), grade 0-5” value in series [9] is listed as 5 (Herbicidal ratio of 90% or more (almost completely withered)). Moreover, the “K: Lolium multiflorum Lam., herbicidal effect (criteria 0-5)” value in [10] was 5 (Herbicidal ratio of 90% or more (almost completely withered)). The “f: beet, effect on crop (criteria 0-5)” value in [11] is 0 (Herbicidal ratio of 5% or lower (almost no effect)). For the same compound, the “F: Digitaria ciliaris, herbicidal effect grade” value in series [12] was 5 (Herbicidal ratio of 90% or more (almost completely withered)). The “H: Echinochloa crus-galli var. crus-galli, herbicidal effect (criteria 0-5)” value in series [13] is reported as 5 (Herbicidal ratio of 90% or more (almost completely withered)). Also, in series [14], the “O: Chenopodium album, herbicidal effect (criteria 0-5)” value was 3 (Herbicidal ratio of 40% or higher and lower than 70%). Further, the “R: Veronica persica, herbicidal effect (criteria 0-5)” value in [15] was 2 (Herbicidal ratio of 20% or higher and lower than 40%).

`CC(CC1CC(O)=C(c2c(C)cc(C)cc2C)C1=O)=NOCc1ccc(F)cc1` (stereo not drawn) [1-136]: in series [1], the “e: wheat, effect grade on crop” value was 3 (Herbicidal ratio of 40% or higher and lower than 70%). Also, the “d: soybean, effect grade on crop” value in series [2] was 0 (Herbicidal ratio of 5% or lower (almost no effect)). For the same compound, in [3], the “e: wheat, effect on crop (criteria 0-5)” value is 3 (Herbicidal ratio of 40% or higher and lower than 70%). Besides, in [4], the “Herbicidal effect grade, A: Echinochloa oryzacola Vasing.” value is 5 (Herbicidal ratio of 90% or more (almost completely withered)). Further, the “d: soybean, effect on crop (criteria 0-5)” value in series [5] is 1 (Herbicidal ratio of 5% or higher and lower than 20%). Besides, the “g: rapeseed, effect grade on crop” value in [6] is 3 (Herbicidal ratio of 40% or higher and lower than 70%). Besides, the “Q: Galium spurium, herbicidal effect (criteria 0-5)” value in series [7] was 4 (Herbicidal ratio of 70% or higher and lower than 90%). Further, the “Herbicidal effect grade, C: Monochoria vaginalis” value in series [8] was 5 (Herbicidal ratio of 90% or more (almost completely withered)). Moreover, the “effect on crop b (directly sowed rice plant), grade 0-5” value in [9] is on record as 5 (Herbicidal ratio of 90% or more (almost completely withered)). Besides, in [10], the “K: Lolium multiflorum Lam., herbicidal effect (criteria 0-5)” value was 5 (Herbicidal ratio of 90% or more (almost completely withered)). The “f: beet, effect on crop (criteria 0-5)” value in series [11] is given as 0 (Herbicidal ratio of 5% or lower (almost no effect)). Besides, the “F: Digitaria ciliaris, herbicidal effect grade” value in series [12] is listed as 5 (Herbicidal ratio of 90% or more (almost completely withered)). In addition, in series [13], the “H: Echinochloa crus-galli var. crus-galli, herbicidal effect (criteria 0-5)” value is 5 (Herbicidal ratio of 90% or more (almost completely withered)). Moreover, in series [14], the “O: Chenopodium album, herbicidal effect (criteria 0-5)” value is given as 0 (Herbicidal ratio of 5% or lower (almost no effect)). In series [15], the “R: Veronica persica, herbicidal effect (criteria 0-5)” value was 2 (Herbicidal ratio of 20% or higher and lower than 40%).
